Measured values published in ChEMBL document CHEMBL1649136, “Plasmodium falciparum pfmdr1 amplification, mefloquine resistance, and parasite fitness” (Antimicrob Agents Chemother, 2009).

System: Plasmodium falciparum
Experiment: Antimicrobial activity against Plasmodium falciparum isolate TM3036 expressing 1 copies of pfmdr1 gene

Cl.OC(c1cc(C(F)(F)F)nc2c(C(F)(F)F)cccc12)C1CCCCN1 (stereo unspecified) [MEFLOQUINE HYDROCHLORIDE]
IC50: 1.47 ng/mL
